Legend:
[1] = Octanol/water partition coefficient, shake-flask, UV-vis; format: physicochemical
Experimental: Partition coefficients (Pow); IUPAC: […] A stock solution of the selected ruthenium compound (ca. 2 mg) was prepared by first adding MeOH (50 μL, to help solubilization), followed by octanol-saturated water (2.5 mL). The solution was diluted with octanol-saturated water (ca. 1:3 v/v ratio, cRu ≈ 10^-4 M, so that 1.5 ≤ A ≤ 2.0 at λmax), and its UV-vis spectrum was recorded (Aaq^0). An aliquot of the solution (Vaq = 1.2 mL) was transferred into a test tube, and water-saturated octanol (Vorg = Vaq = 1.2 mL) was added. […] The UV-vis spectrum of the aqueous phase was recorded (Aaq^f), and the partition coefficient was calculated as Pow = ([…], where […] are the absorbances in the aqueous phase before and after partition with the organic phase, respectively.[118] For 1, an inverse procedure was followed, starting from a solution of the compound in water-saturated octanol. The partition coefficient was calculated as Pow = Aorg^f/(Aorg^0 - Aorg^f), where Aorg^0 and Aorg^f are the absorbances in the organic phase before and after partition with the aqueous phase, respectively. The wavelength of the maximum absorption of each compound (280-380 nm range) was used for UV-vis quantitation. The procedure was repeated three times for each sample (from the same stock solution); the results are given as mean ± standard deviation (Table 2).

[2] = pH of aqueous solution over time; format: physicochemical; conditions: 10^–3 M H2O solution
Experimental: Reactants and solvents were purchased from Alfa Aesar, Merck, Strem, or TCI Chemicals and were of the highest purity available. Tris(1-pyrazolyl)methane (tpm) was prepared according to the published procedure.[105] Reactions were conducted under a N2 atmosphere using standard Schlenk techniques, and all products were stored in air once isolated. All compounds are >95% pure by elemental analysis. Solvents were used as received unless otherwise stated. Toluene and diethyl ether were dried with the solvent purification system mBraun MB SPS5, while methanol was distilled from calcium hydride and isopropanol from magnesium. IR spectra of solid samples were recorded on an Agilent Cary630 FTIR spectrometer. IR spectra were processed with Spectragryph software.[106] NMR spectra were recorded at 298 K on a JEOL JNM-ECZ500R instrument equipped with a Royal HFX Broadband probe. Chemical shifts (expressed in parts per million) are referenced to the residual solvent peaks (^1H, ^13C)[107] or external standard (^31P to H3PO4). ^1H and ^13C{^1H} NMR spectra were assigned with the assistance of ^1H–^13C (gs-HSQC and gs-HMBC) correlation experiments.[108] Elemental analyses were performed on a Vario MICRO cube instrument (Elementar). Conductivity measurements were performed at 25 °C using an XS COND 8 instrument (cell constant = 1.0 cm^–1).[109],[110] pH measurements were performed with an Orion pH meter equipped with a Hamilton glass pH electrode. ESI-Q/ToF flow injection analysis was carried out using a 1200 Infinity HPLC (Agilent Technologies), coupled to a Jet Stream ESI interface (Agilent) with a Quadrupole-Time-of-Flight tandem mass spectrometer 6530 Infinity Q-TOF (Agilent Technologies).

Row | Substance | log Pow [1] | pH(24h) ([2]; 24 h) | pH(48h) ([2]; 48 h) | pH(t0) ([2]; t0)
1 | [RuCl(κ^3-tpm)(PPh3){NCHN(Me)(CH)2}]Cl [compound 3] | –0.15 ± 0.03 | 6.66 | 6.36 | 6.78
2 | [RuCl(κ^3-tpm)(PPh3){CNCH2P(O)(OEt2)2}]Cl [compound 9] | –0.20 ± 0.05 | – | – | –

From publication PMC9376960, “Ruthenium(II)–Tris-pyrazolylmethane Complexes Inhibit Cancer Cell Growth by Disrupting Mitochondrial Calcium Homeostasis” (Journal of Medicinal Chemistry, 2022)
